Assay results: patent publication US6794388B2, “Succinic acid salts of 5,7,14-triazatetracyclo[10.3.1.02,11.04,9] -hexadeca-1(11),3,5,7,9-pentaene and pharmaceutical compositions thereof” (Pfizer Inc., priority 2001, dated 2004)
Counter-ions that a name gives are not always drawn.

Assays:
Type in all cases: physicochemical
aqueous solubility = assay: aqueous solubility
Experimental: (§1) Although in general the acid addition salts of 5,8,14-triazatetracyclo[10.3.1.0^2,11.0^4,9]-hexadeca-2(11),3,5,7,9-pentaene are all crystalline, the majority of those salts are so hygroscopic as to render them poor candidates for pharmaceutical formulation use.
(§2) The aqueous solubility of the anhydrous succinate salt has been measured under various conditions: >10 mg/mL in pH 4 buffer; >10 mg/mL in pH 10 buffer; >10 mg/mL in 0.1 N HCl; and >10 mg/mL in 0.1 N NaOH. The solubility of the anhydrous succinate salt has also been measured in various solvents: >10 mg/mL in methanol; 0.1 mg/mL in acetonitrile and <0.01 mg/mL in hexane. The hygroscopicity of the anhydrous succinate salt has also been measured under various conditions: 0.0% moisture gain at 20% Relative Humidity; 0.3% moisture gain at 40% Relative Humidity; 0.6% moisture gain at 60% Relative Humidity; 0.9% moisture gain at 80% Relative Humidity and 1.3% moisture gain at 95% Relative Humidity.

[1] = solubility in various solvents; settings: organic solvent or mixture
Experimental: as §2

[2] = hygroscopicity (moisture gain on exposure to relative humidity in a moisture chamber)
Experimental: as §1, §2

[3] = solid state stability (light, elevated temperature, high humidity challenges); settings: elevated temperatures
Excerpt: as §1

[4] = native pH in aqueous solution

- solubility (aqueous solubility; aqueous buffer, in 0.1 N NaOH): > 10000 µg/mL
- solubility (aqueous solubility; aqueous buffer, in pH 4 buffer): > 10000 µg/mL
- solubility (aqueous solubility; aqueous buffer, in pH 10 buffer): > 10000 µg/mL
- solubility (aqueous solubility; simulated gastric fluid, in 0.1 N HCl): > 10000 µg/mL
- solubility (aqueous solubility; water): 442000 µg/mL
- solubility ([1]; in acetonitrile): 100 µg/mL
- solubility ([1]; in hexane): < 10 µg/mL
- solubility ([1]; in methanol): > 10000 µg/mL
- hygroscopicity, moisture gain ([2]; at 20% Relative Humidity): 0.0%
- hygroscopicity, moisture gain ([2]; at 40% Relative Humidity): 0.3%
- hygroscopicity, moisture gain ([2]; at 60% Relative Humidity): 0.6%
- hygroscopicity, moisture gain ([2]; at 80% Relative Humidity): 0.9%
- hygroscopicity ([2]; at 90% relative humidity): approximately 1.97%
- hygroscopicity, moisture gain ([2]; at 95% Relative Humidity): 1.3%
- hygroscopicity ([2]; exposure to 90% relative humidity in a moisture chamber): approximately 1.97 % wt/wt
- solid state stability [3]: excellent solid state stability
- native pH in aqueous solution [4]: 4.7
Structure (SMILES): c1cnc2cc3c(cc2n1)C1CNCC3C1 [anhydrous succinate salt, Anhydrous Succinate Salt of 5,8,14-Triazatetracyclo[10.3.1.0^2,11.0^4,9]-hexadeca-2(11),3,5,7,9-pentaene]
